This passage reports T/C results from PubChem BioAssay AID248 (DTP/NCI, 2004).

The assay has as its system L1210 leukemia ip in BDF1 mice, survival T/C. Put plainly: NCI In Vivo Anticancer Drug Screen. Data for tumor model L1210 Leukemia (intraperitoneal) in B6D2F1 (BDF1) mice. As to conditions: endpoint: mean survival time, higher = longer survival. In a few lines: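 Transplanted-tumor mice were given test agent; controls received vehicle only. Survival readings from the two groups were divided (treated over control).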

Setting [1] is: dose: 100.0 mg/kg/injection, schedule: Q04DX003 (ip), vehicle: saline with Tween-80.
Setting [2] is: dose: 200.0 mg/kg/injection, schedule: Q04DX003 (ip), vehicle: saline with Tween-80.
The mark [3] stands for this setting: dose: 400.0 mg/kg/injection, schedule: Q04DX003 (ip), vehicle: saline with Tween-80.
The mark [4] stands for this setting: dose: 100.0 mg/kg/injection, schedule: Q01DX009 (ip), vehicle: Klucel (hydroxypropylcellulose) (HPC).
Setting [5] is: dose: 200.0 mg/kg/injection, schedule: Q01DX009 (ip), vehicle: Klucel (hydroxypropylcellulose) (HPC).
[6] abbreviates: dose: 100.0 mg/kg/injection, schedule: Q01DX001 (ip), vehicle: carboxymethylcellulose (CMC).
Setting [7] is: dose: 200.0 mg/kg/injection, schedule: Q01DX001 (ip), vehicle: carboxymethylcellulose (CMC).
[8] abbreviates: dose: 400.0 mg/kg/injection, schedule: Q01DX001 (ip), vehicle: carboxymethylcellulose (CMC).
Where [9] appears, read: dose: 100.0 mg/kg/injection, schedule: Q04DX003 (ip), vehicle: Klucel (hydroxypropylcellulose) (HPC).
Setting [10] is: dose: 200.0 mg/kg/injection, schedule: Q04DX003 (ip), vehicle: Klucel (hydroxypropylcellulose) (HPC).
[11] abbreviates: dose: 400.0 mg/kg/injection, schedule: Q04DX003 (ip), vehicle: Klucel (hydroxypropylcellulose) (HPC).
Where [12] appears, read: dose: 200.0 mg/kg/injection, schedule: Q01DX001 (ip), vehicle: saline.
Where [13] appears, read: dose: 400.0 mg/kg/injection, schedule: Q01DX001 (ip), vehicle: saline.

“And” between values parts separate entries of the source, which are not always exact repeats. Equal entries are not always repeated. Inconclusive results and toxic doses are left out.

For the compound `COC1/C=C\OC2(C)Oc3c(C)c(O)c4c(O)c(c(/C=N\OCCCc5ccccc5)c(O)c4c3C2=O)NC(=O)/C(C)=C\C=C/C(C)C(O)C(C)C(O)C(C)C(OC(C)=O)C1C` (stereo unspecified), the T/C is, setting by setting: (dose: 25.0 mg/kg/injection, schedule: Q04DX003 (ip), vehicle: water) 96 % of control; (dose: 50.0 mg/kg/injection, schedule: Q04DX003 (ip), vehicle: water) 104 % of control; (dose: 100.0 mg/kg/injection, schedule: Q04DX003 (ip), vehicle: water) 100 % of control; (dose: 200.0 mg/kg/injection, schedule: Q04DX003 (ip), vehicle: water) 100 % of control.

Turning to `COc1ccc(NC(=O)Nc2cc(C(F)(F)F)ccc2Cl)cc1`, the T/C under setting [1] is 88 % of control, the T/C under setting [2] was 91 % of control and the T/C under setting [3] was 86 % of control.

As to `O=C(O)Cc1ccc2[nH]c3c(c2c1)CCCC3`, the T/C (dose: 50.0 mg/kg/injection, schedule: Q01DX009 (ip), vehicle: Klucel (hydroxypropylcellulose) (HPC)) was 105 % of control; the T/C (dose: 100.0 mg/kg/injection, schedule: Q01DX001 (ip), vehicle: steriod suspending solution) was 95 % of control; the T/C under setting [4] was 103 % of control; the T/C (dose: 200.0 mg/kg/injection, schedule: Q01DX001 (ip), vehicle: steriod suspending solution) is 92 % of control; the T/C under setting [5] was 97 % of control.

For the compound `COc1ccc(C(=O)OCC(Br)CBr)cc1` (stereo unspecified), the T/C by setting is: (dose: 222.0 mg/kg/injection, schedule: Q01DX Z (ip), vehicle: methylcellulose (MC)) 102 % of control; (dose: 333.0 mg/kg/injection, schedule: Q01DX Z (ip), vehicle: methylcellulose (MC)) 108 % of control; (dose: 500.0 mg/kg/injection, schedule: Q01DX Z (ip), vehicle: methylcellulose (MC)) 103 % of control.

Turning to `O=C(Nc1ccc([N+](=O)[O-])cc1Cl)Oc1ccc(Br)cc1Br`, the T/C reads like this: under setting [1], 100 % of control; under setting [2], 95 % of control; under setting [3], 100 % of control.

With `CNC(=O)Oc1c(C)cccc1C`, the T/C reads like this: (dose: 100.0 mg/kg/injection, schedule: Q04DX002 (ip), vehicle: saline with Tween-80) 103 % of control; (dose: 200.0 mg/kg/injection, schedule: Q04DX002 (ip), vehicle: saline with Tween-80) 106 % of control; (dose: 400.0 mg/kg/injection, schedule: Q04DX002 (ip), vehicle: saline with Tween-80) 95 % of control.

Consider `Nc1ccc([N+](=O)[O-])c(-c2ccccc2)c1[N+](=O)[O-]`, for which the T/C by setting is: under setting [6], 91 % of control; under setting [7], 91 % of control; under setting [8], 91 % of control.

For the compound `CC1C(=O)OC(C)(C)C1(C)C` (stereo unspecified), the T/C was 108 % of control (dose: 25.0 mg/kg/injection, schedule: Q04DX003 (ip), vehicle: saline with Tween-80); 96 % of control (dose: 50.0 mg/kg/injection, schedule: Q04DX003 (ip), vehicle: saline with Tween-80); 96 % of control under setting [1].

`O=C(O)CC(CO)C(c1ccccc1)c1ccccc1` (stereo unspecified): the T/C by setting is: (dose: 100.0 mg/kg/injection, schedule: Q04DX002 (ip), vehicle: Klucel (hydroxypropylcellulose) (HPC)) 97 % of control; (dose: 200.0 mg/kg/injection, schedule: Q04DX002 (ip), vehicle: Klucel (hydroxypropylcellulose) (HPC)) 97 % of control.

With `CCCCCCCCCCC(O)CCCCCCCCCC`, the T/C is, setting by setting: (dose: 100.0 mg/kg/injection, schedule: Q01DX009 (ip), vehicle: saline with Tween-80) 96 % of control; (dose: 200.0 mg/kg/injection, schedule: Q01DX009 (ip), vehicle: saline with Tween-80) 105 % of control; (dose: 400.0 mg/kg/injection, schedule: Q01DX009 (ip), vehicle: saline with Tween-80) 93 % of control.

Take `O=C1/C(=C/c2ccccc2)Cc2cccc(O)c21`: the T/C is 100 % of control (dose: 100.0 mg/kg/injection, schedule: Q01DX009 (ip), vehicle: saline sonified); 107 % of control (dose: 200.0 mg/kg/injection, schedule: Q01DX009 (ip), vehicle: saline sonified); 102 % of control (dose: 400.0 mg/kg/injection, schedule: Q01DX009 (ip), vehicle: saline sonified).

As to `Nc1n[nH]c2cccc(Cl)c12`, the T/C was 96 % of control (dose: 50.0 mg/kg/injection, schedule: Q01DX009 (ip), vehicle: saline); 104 % of control (dose: 100.0 mg/kg/injection, schedule: Q01DX009 (ip), vehicle: saline); 96 % of control (dose: 200.0 mg/kg/injection, schedule: Q01DX009 (ip), vehicle: saline).

For `CCc1c(CNc2ccc(C(=O)NC(CC(=O)O)C(=O)O)cc2)ccc2nc(N)nc(N)c12` (stereo unspecified), the T/C is 112 % of control (dose: 0.06 mg/kg/injection, schedule: Q01DX009 (ip), vehicle: saline); 150 % of control and 184 % of control (dose: 0.25 mg/kg/injection, schedule: Q01DX009 (ip), vehicle: saline); 150 % of control (dose: 0.5 mg/kg/injection, schedule: Q01DX009 (ip), vehicle: saline); 112 % of control (dose: 0.5 mg/kg/injection, schedule: Q04DX003 (ip), vehicle: saline); 90 % of control and 91 % of control (dose: 1.0 mg/kg/injection, schedule: Q01DX009 (ip), vehicle: saline); 154 % of control (dose: 4.0 mg/kg/injection, schedule: Q04DX003 (ip), vehicle: saline). Also, the T/C (dose: 8.0 mg/kg/injection, schedule: Q04DX003 (ip), vehicle: saline) was 113 % of control.

Turning to `COc1cc(N(C)C)c(OC)cc1C=O`, the T/C is, setting by setting: under setting [4], 103 % of control; under setting [9], 97 % of control; under setting [5], 105 % of control; under setting [10], 95 % of control; under setting [11], 95 % of control.

As to `CC(=O)C(C)C(C)(C)C` (stereo unspecified), the T/C is, setting by setting: (dose: 100.0 mg/kg/injection, schedule: Q01DX001 (ip), vehicle: saline) 106 % of control; under setting [12], 92 % of control; under setting [13], 97 % of control.

On to `CC1(C)OC(CO)C2OC(C)(C)OC(CO)C2O1` (stereo unspecified), for which the T/C by setting is: under setting [6], 98 % of control; under setting [7], 98 % of control; under setting [8], 95 % of control.

On to `OC(c1ccccc1)(c1ccc(-c2ccccc2)cc1)c1cccc2ccccc12` (stereo unspecified), for which the T/C (dose: 75.0 mg/kg/injection, schedule: Q01DX001 (ip), vehicle: saline) is 92 % of control; the T/C (dose: 150.0 mg/kg/injection, schedule: Q01DX001 (ip), vehicle: saline) is 92 % of control; the T/C (dose: 300.0 mg/kg/injection, schedule: Q01DX001 (ip), vehicle: saline) is 91 % of control.

For the compound `COC(=O)c1ccccc1C(=S)N1CCOCC1`, the T/C by setting is: under setting [9], 97 % of control; under setting [10], 96 % of control; under setting [11], 94 % of control.

On to `C[Si](C)(CCl)O[Si](C)(C)CCl`, for which the T/C was 113 % of control (dose: 50.0 mg/kg/injection, schedule: Q01DX001 (ip), vehicle: carboxymethylcellulose (CMC)); 97 % of control under setting [6]; 106 % of control under setting [7]; 97 % of control under setting [8].

With `CC1CCC2C(C)C3C(CC4C5CCC6CC(O)CCC6(C)C5CCC43C)N2C1` (stereo unspecified), the T/C reads like this: (dose: 50.0 mg/kg/injection, schedule: Q01DX001 (ip), vehicle: other) 91 % of control; (dose: 100.0 mg/kg/injection, schedule: Q01DX001 (ip), vehicle: other) 88 % of control; (dose: 200.0 mg/kg/injection, schedule: Q01DX001 (ip), vehicle: other) 96 % of control; (dose: 400.0 mg/kg/injection, schedule: Q01DX001 (ip), vehicle: other) 91 % of control.

As for `CCCCCCCCCCCCCCCCCCNC(=O)Cc1ccc(N(CCCl)CCCl)cc1`, the T/C reads like this: under setting [4], 94 % of control; under setting [5], 95 % of control.

`CN1C(=O)C(C)(C)C(=O)C1(C)C`: the T/C is 100 % of control under setting [12] and 117 % of control under setting [13].

As for `CCOC(=O)CNC(=O)N(CCCl)N=O`, the T/C is 102 % of control (dose: 150.0 mg/kg/injection, schedule: Q01DX Z (ip), vehicle: carboxymethylcellulose (CMC)) and 112 % of control (dose: 250.0 mg/kg/injection, schedule: Q01DX Z (ip), vehicle: carboxymethylcellulose (CMC)).
